Source: the NIST ThermoML archive (doi:10.1016/j.fluid.2014.02.018)
Numbers after ± are expanded uncertainties.

conditions: 313.15 K; Liquid; Closed cell (Static) method

vapor or sublimation pressure	Structure (SMILES)
12.95 ± 0.031 kPa	CC(C)CC(C)(C)C [2,2,4-trimethylpentane]
6.045 ± 0.02 kPa	CCC(C)O (stereo not drawn) [butan-2-ol]
44.98 ± 0.2 kPa	C=CCCCC [hex-1-ene]
